Measurements as given in US12221422B2, “Compounds and their use for the treatment of alpha1-antitrypsin deficiency” (CENTESSA PHARMACEUTICALS (UK) LIMITED, priority 2018, dated 2025).

How the values were obtained:
Pharmacokinetics in rats = format: in vivo; details: rat, whole blood, Sprague Dawley rats, iv 2 mg/kg or oral 10 mg/kg; for half-life: read-out: Half-life in blood (t1/2); for clearance: read-out: Observed clearance; for Vd: read-out: Volume of distribution (Vz)
Method: Compounds were administered to Sprague Dawley rats intravenously (2 mg/kg) or orally (10 mg/kg) by gavage. Whole blood diluted with water was prepared from these dosed animals over a time course up to 24 hours post dose to allow blood concentrations of drug to be measured by UPLC-MS/MS.

human Z A1AT = human Z A1AT (Homo sapiens, UniProt P01009, E366K); test: A1AT cell secretion assay using HEK-Z cells (ELISA); format: cell-based; design: expressed in transfected cells; host or cells: HEK-Z (HEK-EBNA cells containing the Z A1AT plasmid); details: HEK-Z cells, 10, 33, 100 and 333 nM, 48 h, cell supernatant
Method: HEK-Z cells, a human embryonic kidney cell line stably transfected with the human Z A1AT gene, were plated into 96 well plates (3.0×10^5 cells/ml with 200 μl of media/well) overnight at 37° C. in a humidified atmosphere containing 5% CO2. Following incubation cells were washed with 200 μl serum-free media three times and media was replaced with treatments in quadruplicate using serum-free media containing either vehicle, 10 μM suberanilohydroxamic acid (SAHA), N,N-dimethyl-4-((6-oxopyrimidin-1(6H)-yl)methyl)benzamide (at concentrations of 10, 33, 100 and 333 nM), N,N-(bis-methyl-d3)-4-((6-oxopyrimidin-1(6H)-yl)methyl)benzamide (at concentrations of 10, 33, 100 and 333 nM) or N-methyl-4-((6-oxopyrimidin-1(6H)-yl)methyl)benzamide (at concentrations of 10, 33, 100 and 333 nM) for 48 h in a 37° C. incubator in a final volume of 200 μl. At the end of the incubation step the supernatants were removed from the wells, centrifuged at 1000×g at 4° C. for 10 min and were assayed for human A1AT levels by ELISA (Human Serpin A1/α1-antitrypsin duo set ELISA, R& D Systems, DY1268) per manufacturer's instructions.
(§1) Briefly, a 96 well plate was coated with human A1AT capture antibody overnight at room temperature (1:180 dilution from stock, 100 μl final volume/well). The capture antibody was then removed and wells washed three times with 300 μl wash buffer (0.05% Tween 20 in PBS) and then 200 μl reagent diluent (25% Tween 20 in PBS) was incubated in each well for 1 h at room temperature. […] After which, 50 μl stop solution (2M H2SO4) was added and optical density (OD) of each well was read at 450 nm with 570 nm blank subtracted from each well using a microplate reader. A 4 parameter logistic curve was constructed using GraphPad Prism 7 and A1AT concentrations were determined in each sample by interpolation from a standard curve and multiplying by the appropriate dilution factor.
(§2) The amount of A1AT secreted from transfected HEK-EBNA cells into the media was measured by ELISA. […]

human M A1AT = target: T1, human M A1AT (Homo sapiens, UniProt P01009); test: A1AT cell secretion assay using HEK-M cells (ELISA); format: cell-based; details: 10 μM, 48 h
T1 construct: expressed in transfected cells; host or cells: HEK-M (HEK-EBNA cells containing the M A1AT plasmid)
Method: (§3) HEK-M cells, a human embryonic kidney cell line stably transfected with the human M A1AT gene, were plated into 96 well plates (3.0×10^5 cells/ml with 200 μl of media/well) overnight at 37° C. in a humidified atmosphere containing 5% CO2. Following incubation cells were washed with 200 μl serum-free media three times and media was replaced with serum-free media containing either vehicle, 10 μM suberanilohydroxamic acid (SAHA) or a compound of the invention (at 10 μM) in replicates of six for 48 h in a 37° C. incubator in a final volume of 200 μl. […]
as §1, with “volume/well).” for “volume/well). The capture antibody was then removed and wells washed three times with 300 μl wash buffer (0.05% Tween 20 in PBS) and then 200 μl reagent diluent (25% Tween 20 in PBS) was incubated in each well for 1 h at room temperature.”
as §2

human Siiyama A1AT = target: T2, human Siiyama A1AT (Homo sapiens, UniProt P01009, S77F); test: A1AT cell secretion assay using HEK-Siiyama cells (ELISA); format: cell-based; details: 10 μM, 48 h, positive control
T2 construct: expressed in transfected cells; host or cells: HEK-Siiyama (HEK-EBNA cells containing the Siiyama A1AT plasmid)
Method: as §3, with “HEK-Siiyama cells,” for “HEK-M cells,”, “human Siiyama” for “human M”, “(at 1 or” for “(at”, “of eight” for “of six”
as §1, with “volume/well).” for “volume/well). The capture antibody was then removed and wells washed three times with 300 μl wash buffer (0.05% Tween 20 in PBS) and then 200 μl reagent diluent (25% Tween 20 in PBS) was incubated in each well for 1 h at room temperature.”
The amount of human A1AT secreted from transfected HEK-EBNA cells into the media was measured by ELISA. […]

human Z A1AT, sequence (P01009 25-418 E366K): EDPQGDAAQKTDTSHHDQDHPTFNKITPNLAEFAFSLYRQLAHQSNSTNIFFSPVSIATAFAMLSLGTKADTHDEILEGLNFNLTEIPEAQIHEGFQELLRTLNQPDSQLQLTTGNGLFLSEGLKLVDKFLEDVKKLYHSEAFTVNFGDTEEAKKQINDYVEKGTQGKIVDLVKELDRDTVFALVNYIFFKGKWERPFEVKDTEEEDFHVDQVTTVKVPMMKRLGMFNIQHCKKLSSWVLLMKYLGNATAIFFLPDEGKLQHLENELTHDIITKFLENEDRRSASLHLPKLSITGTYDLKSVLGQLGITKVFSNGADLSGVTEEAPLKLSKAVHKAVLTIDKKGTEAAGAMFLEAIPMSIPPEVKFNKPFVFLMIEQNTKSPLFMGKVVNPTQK
T2 sequence (P01009 25-418 S77F): as the sequence (P01009 25-418 E366K) above, with S53F, K342E counted along it
T1 sequence (P01009 25-418): as the sequence (P01009 25-418 E366K) above, with K342E counted along it

half-life (Pharmacokinetics in rats) [min]	clearance (Pharmacokinetics in rats) [mL/min/kg]	Vd (Pharmacokinetics in rats) [L/kg]	Structure (SMILES)	secretion of Z A1AT as measured by ELISA (human Z A1AT)	secretion of M A1AT as measured by ELISA (human M A1AT)	secretion of Siiyama A1AT as measured by ELISA (human Siiyama A1AT)
52	10.6	0.72	[2H]C([2H])([2H])N(C(=O)c1ccc(Cn2cnccc2=O)cc1)C([2H])([2H])[2H] [N,N-(bis-methyl-d3)-4-((6-oxopyrimidin-1(6H)-yl)methyl)benzamide]	stimulates secretion of Z A1AT in a dose dependent manner	–	–
63	10.6	1	CNC(=O)c1ccc(Cn2cnccc2=O)cc1 [N-methyl-4-((6-oxopyrimidin-1(6H)-yl)methyl)benzamide]	stimulates secretion of Z A1AT in a dose dependent manner	–	–
–	–	–	O=C(CCCCCCC(=O)Nc1ccccc1)NO [SAHA, suberanilohydroxamic acid, reference compound]	–	stimulates an increase in M A1AT secretion	stimulates an increase in Siiyama A1AT secretion
